# Entries after “also recorded” stand apart in the source; their conditions may differ. Where a name gives a salt, the structure may show the parent alone. k = constrained ethyl (cEt); d = 2'-deoxy (DNA)
# Tests used:
# MSI1 RNA = assay: MSI1 expression after ASO free uptake (q-RT-PCR); type: cell-based, human; conditions: 24 hours, MIA PaCa-2 cells
# Procedure: (FIG. 8 F to FIG. 8H) Real time PCR analysis of Msi expression following ASO free uptake in MIA PaCa-2 cells. MIA PaCa-2 cells were treated with 2 Gen 2.5 cEt ASOx target MSI1 or Control Gen 2.5 ASO for 24 hours, RNA was isolated and target knockdown (MSI1 RNA level) was determined by q-RT-PCR. IC50 values for each ASO were calculated using GraphPad Prism software; each treatment condition was performed in triplicate. (FIG. 8I) Colony formation assay in MSI1 ASO-treated MIA PaCa-2 cells after weekly delivery of control or MSI1 ASOs; colonies were counted after 4 weeks; n=3 for each ASO tested. (FIG. 8J) In vivo tracking of tumor volume in MSI1 ASO treated MIA PaCa-2 tumors with intratumoral delivery of control or MSI1 ASOs every day for 5 days followed by 2 days off; n=5 for each ASO tested. Nonlinear regression was used to determine the difference in slope between Control ASO and MSI1-ASO-1 (p<0.001). (FIG. 8K) In vivo tracking of tumor volume of primary KP^f/fC tumors with intratumoral delivery of control ASO or MSI1 ASOs following tumor establishment (n=4). […]
# To identify human Msi ASO inhibitors, rapid throughput screens were performed to identify effective ASOs as previously described (Wang, J. C. Y. & Dick, J. E. Cancer stem cells: lessons from leukemia. Trends in Cell Biology 15, 494-501 (2005); Reya, T., Morrison, S. J., Clarke, M. F. & Weissman, I. L. Stem cells, cancer, and cancer stem cells. Nature 414(6859):105-11 (2001); Carroll, J. B. et al. Potent and Selective Antisense Oligonucleotides Targeting Single-Nucleotide Polymorphisms in the Huntington Disease Gene/Allele-Specific Silencing of Mutant Huntingtin. Molecular Therapy 19, 2178-2185 (2009); Samuel, V. T. et al. Targeting foxo1 in mice using antisense oligonucleotide improves hepatic and peripheral insulin action. […] Gene expression was assessed with taqman probes for MSI1 and MSI2. […] Colonies were counted 21 days after the first ASO treatment. […] Tumor measurements were recorded every 3 days. […]
# [1] = system: REM2-KPf/fC pancreatic tumors; assay: In vivo drug therapy of tumor-bearing REM2-KPf/fC mice, reporter frequency by flow cytometry; set-up: species or system mouse; conditions: increasing doses (200 or 500 mg/kg IP)
# Excerpt: The development of the reporter gave us a unique opportunity to determine whether it could be used as a new image based tool to identify therapy resistant cells in pancreatic cancer. The chemotherapeutic agent gemcitabine remains the standard of care for adjuvant treatment of pancreatic cancer and is the most commonly used single agent in the treatment of advanced disease. Despite this, clinical response rates to gemcitabine are below 10% and it fails to prevent relapse after surgery in 85% of patients. Gemcitabine was delivered to tumor-bearing REM2-KPf/fC mice in vivo at increasing doses to determine the composition of residual disease. […] Importantly, these experiments identify Msi reporter positive cells as the predominant gemcitabine resistant population.
# 9-10 week old REM2-KP^f/fC mice were treated with Gemcitabine alone or in combination with Crizotinib or iBet762 for 6 days. On day 6, tumors were removed, dissociated (as described above), counted for total cellular content, stained with anti-mouse EpCAM antibody and analyzed for reporter expression by flow cytometry. Gemcitabine (Sigma, G6423) was resuspended in H2O at 20 mg/ml and delivered at 200 mg/kg or 500 mg/kg by IP injection twice over 6 days (on day 0 and 3). […]
# [2] = system: Msi2 Reporter KPf/fC cells; assay: In vitro gemcitabine treatment with live imaging of Msi2 reporter KPf/fC cells; type: cell-based, mouse; conditions: 10 μM gemcitabine, imaged up to 48 h
# pancreatic cancer = conditions: cited from earlier work
# blast crisis CML = assay: In vivo identification of therapy-resistant residual leukemia cells after Gleevec; set-up: species or system mouse; conditions: Gleevec 150 mg/kg daily oral gavage, NSG mice
# Procedure: (FIG. 41A) The strategy used to track residual leukemia cells in vivo. KLS cells isolated from Msi2^GFP/Actb-DsRed mice were co-infected with BCR-ABL1 and NUP98-HOXA9 and subsequently transplanted into NOD-Scid IL2Rg^null (NSG) recipient mice. Fourteen days post-transplantation (D14), recipient mice were treated daily with Gleevec or vehicle alone (control) for […] and analyzed by flow cytometry on D20. (FIG. 41B) Average frequency of Msi2+ (% GFP^+) leukemia cells determined at various anatomic sites from mice with blast crisis CML (n=3 mice). (FIG. 41C) Extent of residual disease at different anatomic sites following Gleevec treatment.
# To test this, REM2 mice were crossed with mice expressing dsRed under the control of a ubiquitous promoter (Vintersten et al., 2004). […]
# To determine sites that harbor therapy-resistant cells, bone marrow-derived KLS cells were isolated and sorted from Msi2^GFP/Acb-DsRed mice and cultured in X-Vivo 15 media (Lonza) supplemented with 50 μM 2-mercaptoethanol, 10% (vol/vol) fetal bovine serum, SCF (100 ng/ml, R&D Systems) and TPO (20 ng/ml, R&D Systems). […] Fifteen days post-transplantation (D15), recipient mice were treated daily with Gleevec (150 mg/kg) or H2O (control) via oral gavage for five consecutive days (D15 to D19) and analyzed by flow cytometry on D20.
# blast crisis CML cells = conditions: versus 2-fold difference without treatment
# Excerpt: To account for any differences in cell survival between GFP+ and GFP− cells that is solely due to differences in differentiation status, we specifically analyzed cell survival of GFP+ and GFP− leukemia cells within the lineage-negative (Lin−) fraction.
# To account for any differences in cell survival between GFP^+ and GFP^− cells that is solely due to differences in differentiation status, we specifically analyzed cell survival of GFP^+ and GFP^− leukemia cells within the lineage-negative (Lin^−) fraction.
# Cells were then washed and stained with antibodies against lineage markers. Apoptosis assays were performed by staining cells with Annexin-V (BD Pharmingen).
compound,measurement,setting,value
"5′-GGCTACTACGCCGTCA-3′ (sugars from the 5' end k3 d10 k3, backbone and methylation of C not given here) [Control ASOs]",MSI1 expression in cell lines after ASO treatment,MSI1 RNA,did not suppress MSI1 expression
"5′-TTACATATGATACAGG-3′ (sugars from the 5' end k3 d10 k3, backbone and methylation of C not given here) [ASO-2]",MSI1 expression in cell lines after ASO treatment,MSI1 RNA,inhibited MSI1 expression
"Nc1ccn([C@@H]2O[C@H](CO)[C@@H](O)C2(F)F)c(=O)n1 [gemcitabine, Gemcitabine]",Effect on GFP+ (Msi2 reporter+) tumor cells,[1],resistant and remained viable; also recorded: preferential survival
same,Effect on GFP− (Msi2 reporter−) tumor cells,[1],sensitive to gemcitabine and were preferentially eliminated
same,Msi2 expression in Msi2 reporter− KPf/fC cells after in vitro treatment,[2],do not turn on Msi2 expression
same,Patients in whom it fails to prevent relapse after surgery,pancreatic cancer; adjuvant,85%
same,Clinical response rates,pancreatic cancer; pancreatic cancer patients,below 10%
"Cc1ccc(NC(=O)c2ccc(CN3CCN(C)CC3)cc2)cc1Nc1nccc(-c2cccnc2)n1 [imatinib, imatinib mesylate]",GFP+ leukemic cell population remaining following imatinib treatment,"blast crisis CML; calvarium, femur, tibia, sternum or pelvis",~37%
same,GFP+ leukemic cell population remaining following imatinib treatment,blast crisis CML; spleen,~60%
same,Increase in difference in cell survival between Lin− GFP+ and Lin− GFP− cells following imatinib treatment,blast crisis CML cells,3 fold

# Source: patent US10578608B1, “Tools to detect, track and target cancer cells in vivo” (The Regents of the University of California, priority 2015, dated 2020)
